Molecules are shown by their SMILES. Counter-ions that a name gives are not always drawn. Like-named read-outs stand apart in the source and are kept apart here. Some results are limits rather than exact numbers.

The values that follow come from patent US20240358711A1, “COMPOUNDS FOR NEUTROPHIL ROS INHIBITION” (IMMUNYX PHARMA LTD., priority 2021, published 2024).

For one data set, the system named is mouse neutrophils. Kind of data set: ROS inhibition in mouse neutrophils. Type of data set: cell-based. Conditions: average of several experiments; for <90% ROS Inhibition: concentration. From the text: (§1) PMA was again used to stimulate ROS production in neutrophils and the effects of the drugs were monitored at increasing concentration levels.
Data set [1] deals with human neutrophils. Kind of data set: ROS production by PMA-stimulated purified human neutrophils. Type of data set: cell-based. Conditions: for ROS production in the presence of PMA: 10 uM concentration; for ROS production in the presence of PMA / IC50 / <90% ROS Inhibition: human neutrophils; for IC50 / <90% ROS Inhibition: PMA stimulated, average of several experiments; for IC50: read-out: ROS Inhibition IC50; for ROS inhibitor effectiveness over 100 nm to 10 uM: PMA stimulated human neutrophils; for <90% ROS Inhibition: concentration. The method, then: Following blood withdrawal, blood was overlaid on 3% dextran in 0.9% NaCl in a 1:1 ratio and left at RT for 25 min to allow erythrocyte sedimentation. Residual RBCs were lysed by adding water for 30 sec and stopped by adding 2.5% BSA/5×PBS. WBCs were then diluted in 0.5% BSA/1×PBS and total number of cells was counted. Purification of pure neutrophils (HDNs) was done by overlaying blood after RBC sedimentation in a 1:1 ratio on Histopaque-1077. After 30 min centrifugation at 400 g, pure neutrophils were found at the bottom of the tube (pellet). Mononuclear cells (LDF—low density fraction) settle between the Histopaque-1077 and the 0.9% saline.
(§2) A high-throughput screen was performed to find molecules that inhibit ROS production by neutrophils. Extracted human neutrophils were purified and kept in culture. The cells were then exposed to various drugs and ROS production was monitored over time. Compounds that also scavenged hydrogen peroxide (H2O2) and/or lowered neutrophil ATP levels (reflecting toxicity) were removed. The top hits from the screen were selected for further analysis.
Neutrophils not exposed to PMA were used as a negative control and neutrophils exposed to only PMA were used as a positive control.
as §1

The test system of data set [2] is human neutrophils. Kind of data set: High-throughput screen for molecules that inhibit ROS production by neutrophils (PMA and fMLP stimulation). Type of data set: cell-based. As to the method:
as §2, with “analysis. 160 basal hits were tested for their ability to inhibit neutrophil ROS production. 64 molecules were able to inhibit ROS production in the presence of PMA activation. 67 molecules were able to inhibit ROS production in the presence of N-Formylmethionine-leucyl-phenylalanine (fMLP). Of those 47 molecules were able to inhibit ROS production by both stimulation methods.” for “analysis.”

Data set [3] relates to whole blood samples from healthy human subjects. Kind of data set: ROS levels in whole blood samples from healthy human subjects, without or with PMA. Conditions: for reduction in ROS in whole blood treated with PMA: higher dose (5 uM). Type of data set: cell-based. As to the method: A high and low concentration were tested for each compound. […] Next, the compounds were tested on whole blood treated with PMA.

The subject of data set [4] is neutrophils isolated from blood. The data set is described as follows: Neutrophil survival by FACS (Annexin V and PI double positive = dead). The following applies: 2 hours culture, drugs at 1 uM. Type of data set: cell-based. As to the method: To test this hypothesis, neutrophils isolated from blood were cultured with the various drugs (concentration 1 uM) for 2 hours and then neutrophil survival was monitored by FACS. Cells that were double positive for Anexin V staining and PI staining were considered dead.

Data set [5] in a line: Circulating ALT levels in mice after drug administration. Type of data set: in vivo, mouse. The following applies: 48 hours after drug administration. As to the method: One of the benefits of targeting of these drugs directly to neutrophils is to decrease their unwanted side effects. As mentioned early, many of these compounds have known side effects with respect to neutrophil differentiation in the bone marrow. Targeting to mature neutrophils decreases this unwanted side effect. To test if side effects are indeed decreased liver enzyme levels were measured in the mice after administration of free Stelazine and neutrophil targeted Stelazine. […] It is thus clear that neutrophil targeting is particularly beneficial for the selected compounds.

A further data set deals with LPS treated mice. Kind of data set: ROS in the lungs of LPS treated mice (lung inflammation model). Type of data set: in vivo, mouse.

Method for LPS treated mice: (5B) Bar graph of relative ROS levels in the lungs of LPS treated mice, LPS treated mice administered free Stelazine, Stelazine loaded naked liposomes and Stelazine loaded targeting-peptide decorated liposomes. (5C) Images of ROS levels in LPS treated lungs administered various compositions of Stelazine and/or naked or peptide-decorated liposomes (referred to as “TENN”). 4 hours following treatment with the described molecules, animals were injected with luminol and ROS in the lungs was quantified using IVIS.
Mice were given 150 ug LPS by inhalation and left for 2 days. […] The LPS was inhaled on Day 0, and then the dosing of the drugs was performed in the evening of day 1 and the morning of day 2. Three different formulations of Stelazine were tested by IV administration: free Stelazine administered in PBS, Stelazine loaded into liposomes in PBS, and Stelazine loaded into liposomes decorated with neutrophil targeting peptides in PBS.

The IC50 is the concentration needed to halve the response being measured. For the molecule `CCN1CCN(Cc2ccc(Nc3ncc(F)c(-c4cc(F)c5nc(C)n(C(C)C)c5c4)n3)nc2)CC1` [Abemaciclib], the IC50 with mouse neutrophils (Neutrophil) was 1500 nM. Moreover, the “<90% ROS Inhibition” value with mouse neutrophils amounted to 5 µM. Also, in the data set with human neutrophils [1], the “ROS production in the presence of PMA” value was “more effective”, the “ROS inhibitor effectiveness over 100 nm to 10 uM” value is recorded as “most effective ROS inhibitors” and the “<90% ROS Inhibition” value worked out at 2 µM. For the same molecule, the IC50 in the data set on human neutrophils [1] (Neutrophil) stood at 1000 nM.

In the data set with mouse neutrophils (Neutrophil), `CN(C)C/C=C/C(=O)Nc1cc2c(Nc3ccc(F)c(Cl)c3)ncnc2cc1O[C@H]1CCOC1` [Afatanib Maleate, Afatinib Maleate] yielded an IC50 of 2500 nM. Moreover, the “<90% ROS Inhibition” value in the data set on mouse neutrophils stood at 8 µM.

In the case of `CN(C)C/C=C/C(=O)Nc1cc2c(Nc3ccc(F)c(Cl)c3)ncnc2cc1O[C@H]1CCOC1` [Afatinib], in the data set with human neutrophils [1], the “ROS production in the presence of PMA” value is “more modest reduction” and the “<90% ROS Inhibition” value stood at 9 µM. For the same molecule, the half-maximal inhibitory concentration (IC50) with human neutrophils [1] (Neutrophil) was 4000 nM.

Turning to `CN(C)CCC=C1c2ccccc2CCc2ccccc21` [Amitriptyline], the “ROS inhibition in the screen” value in the data set on human neutrophils [2] was “inhibited ROS production”.

As to `COc1cc(Nc2c(C#N)cnc3cc(OCCCN4CCN(C)CC4)c(OC)cc23)c(Cl)cc1Cl` [Bosutinib], the IC50 with mouse neutrophils (Neutrophil) was 150 nM; in the data set with human neutrophils [1] (Neutrophil), 200 nM. Also, the “<90% ROS Inhibition” value in the data set with mouse neutrophils amounted to 1.5 µM; in the data set on human neutrophils [1], 0.75 µM. For the same molecule, the “ROS production in the presence of PMA” value in the data set on human neutrophils [1] was “more effective”. In the data set on human neutrophils [1], the “ROS inhibitor effectiveness over 100 nm to 10 uM” value is “most effective ROS inhibitors”. For the same molecule, the figures for the “ROS inhibition in whole blood treated with PMA” value (“ROS inhibition … with PMA” for short) in data set [3] (1 uM) and in data set [3] (5 uM) were “this inhibition was quickly lost” and “highly effective at ROS inhibition”, respectively.

With `CN(C)CCCN1c2ccccc2CCc2ccc(Cl)cc21` [Clomipramine], the “<90% ROS Inhibition” value in the data set with mouse neutrophils turned out to be 7 µM. In the data set on human neutrophils [1], the “ROS production in the presence of PMA” value is “more effective”, the “ROS inhibitor effectiveness over 100 nm to 10 uM” value is “most effective ROS inhibitors” and the “<90% ROS Inhibition” value was found to be 5 µM. Also, in data set [3] (5 uM), the “ROS inhibition … with PMA” value was “less strong effect”. In data set [3], the “reduction in ROS in whole blood treated with PMA” value is recorded as above 50%.

On to `CCCCOc1ccc(C(=O)CCN2CCCCC2)cc1` [Dyclonine], for which the IC50 was found to be 2000 nM in the data set with mouse neutrophils (Neutrophil) and 2500 nM in the data set with human neutrophils [1] (Neutrophil). In addition, the “<90% ROS Inhibition” value with mouse neutrophils came to 5 µM; in the data set on human neutrophils [1], 7 µM. Further, the “ROS levels relative to unstimulated neutrophils” value in the data set on human neutrophils [1] (10 μM) is listed as 44 % of negative control cells.

In the data set on mouse neutrophils, `CC(C)(C)C(=O)/C(=C\c1cccc([N+](=O)[O-])c1)n1cncn1` [Nexinhib] showed an IC50 of 8000 nM. Besides, in the data set with human neutrophils [1], the IC50 was found to be 1500 nM and the “<90% ROS Inhibition” value came to 5 µM. For the same molecule, the “ROS inhibition … with PMA” value in data set [3] (5 uM) is reported as “less strong effect”. Besides, the “reduction in ROS in whole blood treated with PMA” value in data set [3] is recorded as above 50%.

In the case of `COC(=O)C1=C(C)NC(C)=C(C(=O)OCC(C)C)C1c1ccccc1[N+](=O)[O-]` (centres unmarked) [Nisoldipine], in the data set with human neutrophils [1], the “ROS production in the presence of PMA” value is “more modest reduction”.

For the molecule `CCCCCCCCCCCCCC(=O)O[C@@H]1[C@@H](C)[C@@]2(O)[C@@H](C=C(CO)C[C@]3(O)C(=O)C(C)=C[C@@H]23)[C@@H]2C(C)(C)[C@]12OC(C)=O` [PMA, Phorbol 12-myristate 13-acetate], the “increase in cell death as compared to control” value in data set [4] is around 50%.

In the case of `CC(=O)c1c(C)c2cnc(Nc3ccc(N4CCNCC4)cn3)nc2n(C2CCCC2)c1=O` [Palbociclib], the “ROS production in the presence of PMA” value in the data set on human neutrophils [1] is “strongly reduced ROS production”.

Regarding `CN(C)C(=O)c1cc2cnc(Nc3ccc(N4CCNCC4)cn3)nc2n1C1CCCC1` [Ribociclib], the “ROS production in the presence of PMA” value in the data set with human neutrophils [1] is “more modest reduction”.

Regarding `CC(C)(C)C(=O)Oc1ccc(S(=O)(=O)Nc2ccccc2C(=O)NCC(=O)O)cc1` [Sivelestat], the “increase in cell death as compared to control” value in data set [4] is recorded as below 6%.

In turn, `CN1CCN(CCCN2c3ccccc3Sc3ccc(C(F)(F)F)cc32)CC1` [Stelazine, Trifluoperazine] yielded an IC50 in the data set on mouse neutrophils (Neutrophil) of 2500 nM. In the data set on mouse neutrophils, the “<90% ROS Inhibition” value was determined as 4 µM. Besides, in the data set on human neutrophils [1], the “ROS production in the presence of PMA” value was “more effective”, the “ROS inhibitor effectiveness over 100 nm to 10 uM” value is “most effective ROS inhibitors” and the “<90% ROS Inhibition” value is 4 µM. The IC50 in the data set with human neutrophils [1] (Neutrophil) came to 1000 nM. Further, the “alanine aminotransferase (ALT) levels in the blood” value in data set [5] is reported as “increased alanine aminotransferase (ALT) levels in the blood”. Further, the “ROS levels in LPS treated lungs, luminol/IVIS imaging” value with LPS treated mice (4 hours following treatment) is recorded as “had an effect on ROS levels”. In addition, in the data set on LPS treated mice (IV, 48 hours after LPS administration), the “reduction in ROS in the lungs as compared to the untreated control” value is listed as around 50%.
